The subject of one test is Primary human T-cells. The test is described as follows: Primary Human T-Cell Proliferation Assay Stimulated with IL-2 (CellTiter-Glo). As to conditions: read-out: IC50, Example 42. Type of test: cell-based. In a few lines:
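Peripheral blood T-cells pre-activated with anti-CD3/anti-CD28 and IL-2 were washed free of IL-2, then cultured with compound plus IL-2 for 72 hours at 37° C, duplicate wells. Viability read as ATP by CellTiter-Glo luminescence; IC50 reported.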

The subject of test [1] is up-regulation of ICAM-1 (CD54) by IFNγ in A549 lung epithelial cells. The test is described as follows: A549 Epithelial Line Stimulated with IFNγ (ICAM-1 surface expression, FACS). The test is classed as cell-based, human. As to conditions: ICAM-1 expression by FACS, read-out: IC50, Example 43. In a few lines:
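A549 cells pre-incubated 1 h with compound (30 μM to 14 nM, 5% FBS, 0.3% DMSO), then stimulated with IFNγ (75 ng/mL) for 24 h. Surface ICAM-1 stained with APC anti-CD54 and read by flow cytometry; geometric mean of live-gated events plotted against concentration for EC50.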

Setting [2] is: primary human T-cell proliferation stimulated with IL-2.
[3] abbreviates: A549 epithelial line stimulated with IFNγ.

This passage reports IC50 results from US11827628B2, “Compositions and methods for inhibition of the JAK pathway” (Rigel Pharmaceuticals, Inc., priority 2005, dated 2023).

SMILES strings stand for the structures. Like-named read-outs stand apart in the source and are kept apart here.

Take `Cc1ccc(Nc2ncc(F)c(Nc3ccc(NC(=O)CC#N)c(Cl)c3)n2)cc1S(N)(=O)=O` [Compound I-83, N2-(3-Aminosulfonyl-4-methylphenyl)-N4-[3-chloro-4-(N-cyanoacetyl)aminophneyl]-5-fluoro-2,4-pyrimidinediamine]: the concentration for half-maximal inhibition (IC50) in the test on Primary human T-cells (setting [2]) turned out to be 1.76 µM; in test [1] (setting [3]) it was 14.9 µM.

Take `Cc1cc(Nc2nc(Nc3cccc(S(N)(=O)=O)c3)ncc2F)cc(C)c1OCC(N)=O` [Compound I-93, N4-(4-Aminocarbonylmethoxy-3,5-dimethyl)phenyl-N2-(3-aminosulfonyl)phenyl-5-fluoro-2,4-pyrimidinediamine]: the figures for the IC50 (with Primary human T-cells (setting [2]); in test [1] (setting [3])) were 1.17 µM and 23.8 µM, respectively.

For `CCC(=O)NS(=O)(=O)c1cccc(Nc2ncc(F)c(Nc3ccc(OCc4nc(C)no4)cc3)n2)c1` [Compound I-273], the values for the 50% inhibitory concentration (IC50) (in the test on Primary human T-cells (setting [2]); in test [1] (setting [3])) were 0.193 µM and 12.9 µM, respectively.

On to `CNS(=O)(=O)c1cc(Nc2ncc(F)c(Nc3ccc(Cc4ccncc4)cc3)n2)ccc1C` [III-75, 5-Fluoro-N2-[3-(N-methylaminosulfony)-4-methylphenyl]-5-fluoro-N4-[4-(4-pyridinylmethyl)phenyl]-2,4-pyrimidinediamine], for which the IC50 turned out to be 0.22 µM in the test with Primary human T-cells (setting [2]) and 10.1 µM in test [1] (setting [3]).

In the case of `NS(=O)(=O)c1cccc(Nc2ncc(F)c(Nc3ccc(Cn4ccnc4)cc3)n2)c1` [III-81, N2-(3-Aminosulfonylphenyl)-5-fluoro-N4-[4-(1-imidazolylmethyl)phenyl]-2,4-pyrimidinediamine], the results for the 50% inhibitory concentration (IC50) (in the test on Primary human T-cells (setting [2]); in test [1] (setting [3])) were 0.204 µM and 48.3 µM, respectively.

As to `Cc1ccc(Nc2ncc(F)c(Nc3ccc(Cn4ccnc4)cc3)n2)cc1S(N)(=O)=O` [III-82, N2-(3-Aminosulfonyl-4-methylphenyl)-5-fluoro-N4-[4-(1-imidazolylmethyl)phenyl]-2,4-pyrimidinediamine], the concentration for half-maximal inhibition (IC50) was 0.16 µM in the test with Primary human T-cells (setting [2]) and 24.2 µM in test [1] (setting [3]).

Turning to `Cc1ccc(Nc2ncc(F)c(Nc3ccc4c(c3)CCN4S(C)(=O)=O)n2)cc1S(N)(=O)=O` [VII-61, N2-(3-Aminosulfonyl-4-methylphenyl)-5-fluoro-N4-[4-(1-methylsulfonyl)indolin-5-yl]-2,4-pyrimidinediamine], the IC50 with Primary human T-cells (primary human T-cells stimulated with IL-2, proliferation) is 0.14 µM; in test [1] (A549 cells stimulated with IFNγ), 2.69 µM.
